What is called viability is a read-out of living cells in per cent, often relative to untreated cells.

Entries after “also recorded” stand apart in the source; their conditions may differ.

Data on 14 compounds can be found in PMC12349723, “Computationally accelerated identification of P-glycoprotein inhibitors” (PLOS One, 2025).

Data set [1] deals with T1, P-gp (Homo sapiens, UniProt P08183).
T1 construct: The MDR, P-gp overexpressing DU145-TXR cells were maintained under positive selection pressure; endogenous in cells; host or cells: DU145-TXR (paclitaxel-resistant sub-line of DU145 human prostate cancer cells)
In words: Daunorubicin accumulation (fluorescence) assay in DU145-TXR cells. Type of data set: cell-based. The conditions noted are these: for Significance (DAU + compound vs DAU alone): Student's T test of the mean; for Effect on DAU fluorescence / intracellular DAU retention: DU145-TXR, 10 µM compound + 10 µM DAU, 2 h. On the procedure:
These assays are based upon those reported in [9]. DU145-TXR cells were seeded in 96 well plates in complete RPMI medium at 15,000 cells per well. Cells were allowed to grow for 48 hours in a humidified incubator at 37 °C and 5% CO2. After 48 hours, media was replaced with fresh complete RPMI medium. Cells were treated with 10 µM of experimental compound with or without 10 µM daunorubicin (DAU). After a 2-hour incubation at 37 °C and 5% CO2 in a humidified incubator, media was removed with a vacuum aspirator, and cells were washed twice with ice-cold phosphate buffered saline (PBS) solution. Cells were lysed in PBS containing 0.5% SDS and 0.5% Triton X-100 and shaken on an Orbital Shaker for 10 min at 500 rpm. […] Data are the mean ± one standard deviation from three independent experiments, 3 samples per experiment. Statistical significance was determined with a Student’s T test in GraphPad prism.
Δ DAU Fluorescence= Fluorescence of (Compound+DAU) treated cells/Fluorescence of DAU treated cells
These assays used the P-gp highly overexpressing DU145-TXR cell line. In this assay, the intrinsic fluorescence of DAU was used to quantify its relative concentration in the cell. An increase in fluorescence correlates with an increase in the intracellular accumulation of DAU. […] Cells were treated with 10 µM of experimental compound with or without 10 µM DAU. After a 2-hour incubation, cells were washed and lysed, and the total fluorescence of DAU in each well was quantified.
Fig 5 Change in fluorescence of DAU in the presence of experimental compounds. Fold change in fluorescence of the P-gp substrate Daunorubicin (DAU) in the presence or absence of experimental compounds or known P-gp modulators. Cells were treated with 10 µM compound in the presence or absence of 10 µM DAU. After washing and lysing the cells, the intracellular DAU fluorescence was measured and expressed as a fold change relative to the fluorescence of DU145-TXR cells treated with DAU alone. […] Three samples per trial, three independent trials. Significance was determined using a Student’s T test of the mean by comparing fluorescence of DAU and compound to that of DAU alone; P > 0.05 = N.S., P < 0.05 = *, P < 0.01 = **, P < 0.001 = ***, P < 0.0001 = ****. Data also shown in S4 Fig.

A short description of data set [2]: Resazurin cell viability pre-screen in DU145-TXR cells with or without PTX. To be noted: human, mean of two experiments in triplicate, read-out: Viability, 15 µM compound alone. Type of data set: cell-based. Here is the method:
Culture of the DU145, DU145-TXR, and HFL1 cell lines was performed as described in [8]. Culture of the A2780 and A2780-ADR cell lines was performed as described in [9]. MTT assays were performed as described in [8] with minor modifications. LC-MS/MS accumulation assays were performed as described in {Nanayakkara, 2018 #173} [9] with some modifications. […] The inhibitor concentration was lowered to 15 µM here, as the goal of the study was to identify compounds that were effective in reversing MDR at low concentrations, and to determine if the expanded virtual-assisted methods improved on our first-draft attempt. Compounds 56–98 were pre-screened using Resazurin cell viability assays: cells were incubated with 15 µM compound with or without 500 nM PTX for 48 hours, after which cell survival was assessed similar to [39]. Data represent the mean of two separate experiments, with n = 3 samples per experiment (n = 6 total) (S4 Table). The top performing compounds from this initial screen were re-tested with MTT viability assays against DU145-TXR cells, as described below.
S4 Table. Pre-screening of compounds 56 – 98 against DU145-TXR cells with resazurin assays. DU145-TXR cells were incubated with 15 µM compound with or without 500nM PTX for 48 hrs; survival was subsequently determined with the Resazurin viability assay ^[37]. […] Percent re-sensitization is defined as the percent change in viability between cells treated with compound and PTX, versus cells treated with PTX alone. In some instances, the assay reported an increase in viability with compound + PTX, and no percent sensitization is reported. ‘Follow-up Testing’ compounds were re-assessed with MTT assays (Figure 1). Compounds 59 and 89 (*, ‘Follow-up Testing’) were used as negative controls in follow-up MTT assays to test for consistency of results, e.g. to confirm that molecules eliminated in Resazurin assays were justifiably eliminated from later screening with MTT assays.
On the technique in general: Alamar Blue is a resazurin reagent that responds to reducing activity.

The subject of data set [3] is P-gp. Details: method as in earlier work. The conditions noted are these: ref [66-68]; cited from earlier work.

T1 sequence (P08183 whole entry): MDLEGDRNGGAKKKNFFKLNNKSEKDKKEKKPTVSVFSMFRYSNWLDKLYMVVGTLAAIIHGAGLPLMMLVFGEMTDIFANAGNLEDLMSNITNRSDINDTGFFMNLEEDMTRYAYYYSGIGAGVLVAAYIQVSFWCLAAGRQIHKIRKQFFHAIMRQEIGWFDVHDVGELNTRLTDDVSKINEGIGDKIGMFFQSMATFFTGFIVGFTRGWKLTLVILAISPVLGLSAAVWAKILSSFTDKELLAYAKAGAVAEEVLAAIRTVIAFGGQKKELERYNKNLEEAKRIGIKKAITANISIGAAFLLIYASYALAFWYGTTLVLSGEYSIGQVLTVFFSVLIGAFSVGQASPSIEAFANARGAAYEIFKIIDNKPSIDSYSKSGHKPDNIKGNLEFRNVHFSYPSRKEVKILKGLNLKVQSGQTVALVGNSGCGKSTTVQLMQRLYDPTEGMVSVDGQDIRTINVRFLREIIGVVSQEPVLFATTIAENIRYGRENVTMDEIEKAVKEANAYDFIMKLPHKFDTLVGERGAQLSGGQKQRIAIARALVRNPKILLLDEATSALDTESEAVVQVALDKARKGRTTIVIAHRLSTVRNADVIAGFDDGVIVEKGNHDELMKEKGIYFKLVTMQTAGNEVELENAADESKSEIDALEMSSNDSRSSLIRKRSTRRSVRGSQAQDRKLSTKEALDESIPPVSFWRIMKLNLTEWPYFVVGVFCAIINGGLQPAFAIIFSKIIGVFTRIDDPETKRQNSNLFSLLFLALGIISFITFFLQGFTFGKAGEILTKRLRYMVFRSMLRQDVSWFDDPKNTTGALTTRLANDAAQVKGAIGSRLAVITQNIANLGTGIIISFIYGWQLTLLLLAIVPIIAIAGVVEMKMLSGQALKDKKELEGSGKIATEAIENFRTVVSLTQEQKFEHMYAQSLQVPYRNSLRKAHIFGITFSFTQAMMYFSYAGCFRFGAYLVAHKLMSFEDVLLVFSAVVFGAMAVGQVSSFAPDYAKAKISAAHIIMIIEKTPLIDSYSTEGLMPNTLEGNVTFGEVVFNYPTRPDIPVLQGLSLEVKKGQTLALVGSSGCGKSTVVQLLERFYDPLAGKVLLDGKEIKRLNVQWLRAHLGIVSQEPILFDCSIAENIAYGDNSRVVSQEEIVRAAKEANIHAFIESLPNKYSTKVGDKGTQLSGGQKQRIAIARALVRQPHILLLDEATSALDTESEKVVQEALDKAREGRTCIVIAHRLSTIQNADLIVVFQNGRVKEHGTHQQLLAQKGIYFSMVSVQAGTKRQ

Regarding `Cn1cnnc1SCc1c(C(=O)O)nnn1-c1nonc1N` [Compound 59, Cn1cnnc1SCc1c(nnn1-c1nonc1N)C(O)=O], the “Significance (DAU + compound vs DAU alone)” value on P-gp [1] was “N.S. (P > 0.05 = N.S.)”. The viability at 48 h, 15 µM in data set [2] came to 101%. Consider `Nc1nonc1-n1nnc(C(=O)N/N=C/c2c3ccccc3cc3ccccc23)c1COc1ccc(F)cc1` [Compound 60, Nc1nonc1-n1nnc(C(=O)N\N=C\c2c3ccccc3cc3ccccc23)c1COc1ccc(F)cc1], for which, in data set [2], the viability at 48 h, 15 µM came to 88%. On to `CCN1CCN(Cc2c(C(=O)N/N=C3/C(=O)N(C)c4ccccc43)nnn2-c2nonc2N)CC1` [Compound 61, CCN1CCN(Cc2c(nnn2-c2nonc2N)C(=O)N\N=C2\C(=O)N(C)c3ccccc23)CC1], for which, in data set [2], the viability at 48 h, 15 µM worked out at 98.8%. With `O=C(c1cc2ccccc2[nH]1)N1CCN(S(=O)(=O)c2cccc3nonc23)CC1` [Compound 66, O=C(N1CCN(CC1)S(=O)(=O)c1cccc2nonc12)c1cc2ccccc2[nH]1], the viability at 48 h, 15 µM in data set [2] is 98.3%. On to `O=C(c1nc(-c2ccc3cc[nH]c3c2)no1)N1CCN(c2nsc3ccccc23)CC1` [Compound 70, O=C(N1CCN(CC1)c1nsc2ccccc12)c1nc(no1)-c1ccc2cc[nH]c2c1], for which the “Significance (DAU + compound vs DAU alone)” value on P-gp [1] is on record as “* (P < 0.05 = *)”. The viability at 48 h, 15 µM in data set [2] was 99.2%. With `COc1ccc(OC)c(NC(=O)c2nnn(-c3ccc4noc(-c5ccccc5)c4c3)c2C)c1` [Compound 71, COc1ccc(OC)c(NC(=O)c2nnn(c2C)-c2ccc3noc(-c4ccccc4)c3c2)c1], the viability at 48 h, 15 µM in data set [2] was 93%. `Cc1onc(-c2ccccc2)c1-c1nnc(Cn2cnc3c(oc4ccccc43)c2=O)o1` [Compound 78, Cc1onc(c1-c1nnc(Cn2cnc3c4ccccc4oc3c2=O)o1)-c1ccccc1]: at P-gp [1], the “Effect on DAU fluorescence / intracellular DAU retention” value was “significant decrease in fluorescence; also recorded: did not cause an increase in intracellular DAU retention” and the “Significance (DAU + compound vs DAU alone)” value is given as “* (P < 0.05 = *)”. The viability at 48 h, 15 µM in data set [2] came out at 95.2%. Turning to `NS(=O)(=O)c1cccc(NC(=O)CSc2nnnn2C2CC2)c1` [Compound 89, NS(=O)(=O)c1cccc(NC(=O)CSc2nnnn2C2CC2)c1], the viability at 48 h, 15 µM in data set [2] stood at 93.7%. Turning to `O=S(=O)(CCSc1nnc(-c2ccccc2)c2ccccc12)c1ccccc1` [Compound 96, O=S(=O)(CCSc1nnc(-c2ccccc2)c2ccccc12)c1ccccc1], the “Significance (DAU + compound vs DAU alone)” value on P-gp [1] is “**** (P < 0.0001 = ****)”. In data set [2], the viability at 48 h, 15 µM amounted to 89.4%. For the compound `O=S(=O)(Cc1nc2ccccc2n1CC(O)c1ccc(Cl)cc1)c1ccccc1` (centres unmarked) [Compound 97, OC(Cn1c(CS(=O)(=O)c2ccccc2)nc2ccccc12)c1ccc(Cl)cc1], the “Significance (DAU + compound vs DAU alone)” value on P-gp [1] is on record as “**** (P < 0.0001 = ****)”. Further, in data set [2], the viability at 48 h, 15 µM stood at 102%. Take `COc1cccc(N2CCN(c3ccc4nnc(CCC(=O)Nc5ccc(F)c(F)c5)n4n3)CC2)c1` [Compound 101, COc1cccc(c1)N1CCN(CC1)c1ccc2nnc(CCC(=O)Nc3ccc(F)c(F)c3)n2n1]: the “Significance (DAU + compound vs DAU alone)” value at P-gp [1] is recorded as “**** (P < 0.0001 = ****)”. Still for that read-out and setting: the value for `Cc1ccc(-c2noc(-c3cn(Cc4ccc(NS(=O)(=O)c5ccccc5F)cc4)cn3)n2)cc1` [Compound 103, Cc1ccc(cc1)-c1noc(n1)-c1cn(Cc2ccc(NS(=O)(=O)c3ccccc3F)cc2)cn1] was “** (P < 0.01 = **)”. Regarding `Cc1onc(-c2ccccc2)c1-c1nnc(Cn2cnc3ccccc3c2=O)o1` [Compound 111, Cc1onc(c1-c1nnc(Cn2cnc3ccccc3c2=O)o1)-c1ccccc1], on P-gp [1], the “Effect on DAU fluorescence / intracellular DAU retention” value is “did not cause an increase in intracellular DAU retention” and the “Significance (DAU + compound vs DAU alone)” value is “N.S. (P > 0.05 = N.S.)”. Turning to `COc1cc2c(cc1OC)CN(CCc1ccc(NC(=O)c3cc(OC)c(OC)cc3NC(=O)c3cnc4ccccc4c3)cc1)CC2` [Tariquidar, reference compound], in the data set with P-gp [3], the “P-gp Substrate? (known transport substrate of P-gp)” value was “Yes”. The “Significance (DAU + compound vs DAU alone)” value on P-gp [1] is recorded as “**** (P < 0.0001 = ****)”. The viability at 48 h, 15 µM in data set [2] was determined as 75.2%.
